{
  "source": "PubChem BioAssay AID180",
  "about": "(DTP/NCI, 2004)",
  "tested_on": "BDF1 mice, Adenocarcinoma 755 s.c., tumor weight T/C",
  "test": "NCI In Vivo Anticancer Drug Screen. Data for tumor model Adenocarcinoma 755 (subcutaneous) in B6D2F1 (BDF1) mice",
  "details": "endpoint: mean tumor weight, schedule: Q01DX011 (ip), higher = larger tumour",
  "in_short": "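Values express treated (T) relative to vehicle-dosed control (C) animals, based on survival or tumour size measured after compound treatment of mice bearing a transplanted tumour.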",
  "note": "Where “and” joins values, the source holds several entries; their conditions need not be identical. Equal entries are not always repeated.",
  "data": [
    {"smiles": "Nc1nc(=S)c2[nH]cnc2[nH]1", "values": [
      {"measurement": "T/C", "setting": "dose: 0.01 mg/kg/injection, vehicle: saline", "value": "113 % of control"},
      {"measurement": "T/C", "setting": "dose: 0.03 mg/kg/injection, vehicle: saline", "value": "81 % of control"},
      {"measurement": "T/C", "setting": "dose: 0.06 mg/kg/injection, vehicle: saline", "value": "88 % of control"},
      {"measurement": "T/C", "setting": "dose: 0.07 mg/kg/injection, vehicle: alkali diluted with saline", "value": "74 % of control"},
      {"measurement": "T/C", "setting": "dose: 0.07 mg/kg/injection, vehicle: methylcellulose (MC)", "value": "28 % of control"},
      {"measurement": "T/C", "setting": "dose: 0.12 mg/kg/injection, vehicle: carboxymethylcellulose (CMC)", "value": "112 % of control"},
      {"measurement": "T/C", "setting": "dose: 0.12 mg/kg/injection, vehicle: saline", "value": "66 % of control"},
      {"measurement": "T/C", "setting": "dose: 0.13 mg/kg/injection, vehicle: alkali diluted with saline", "value": "95 % of control"},
      {"measurement": "T/C", "setting": "dose: 0.13 mg/kg/injection, vehicle: other", "value": "91 % of control"},
      {"measurement": "T/C", "setting": "dose: 0.13 mg/kg/injection, vehicle: saline", "value": "7 % of control"},
      {"measurement": "T/C", "setting": "dose: 0.18 mg/kg/injection, vehicle: carboxymethylcellulose (CMC)", "value": "32 % of control"},
      {"measurement": "T/C", "setting": "dose: 0.2 mg/kg/injection, vehicle: methylcellulose (MC)", "value": "39 % of control"},
      {"measurement": "T/C", "setting": "dose: 0.24 mg/kg/injection, vehicle: carboxymethylcellulose (CMC)", "value": "77 % of control"},
      {"measurement": "T/C", "setting": "dose: 0.25 mg/kg/injection, vehicle: alkali diluted with saline", "value": "53 % of control"},
      {"measurement": "T/C", "setting": "dose: 0.25 mg/kg/injection, vehicle: distilled water + alcohol", "value": "7 % of control"},
      {"measurement": "T/C", "setting": "dose: 0.25 mg/kg/injection, vehicle: methylcellulose (MC)", "value": "4 % of control and 11 % of control and 15 % of control"},
      {"measurement": "T/C", "setting": "dose: 0.25 mg/kg/injection, vehicle: other", "value": "32 % of control"},
      {"measurement": "T/C", "setting": "dose: 0.35 mg/kg/injection, vehicle: carboxymethylcellulose (CMC)", "value": "9 % of control"},
      {"measurement": "T/C", "setting": "dose: 0.4 mg/kg/injection, vehicle: methylcellulose (MC)", "value": "12 % of control"},
      {"measurement": "T/C", "setting": "dose: 0.47 mg/kg/injection, vehicle: carboxymethylcellulose (CMC)", "value": "34 % of control"},
      {"measurement": "T/C", "setting": "dose: 0.5 mg/kg/injection, vehicle: alkali diluted with saline", "value": "4 % of control"},
      {"measurement": "T/C", "setting": "dose: 0.5 mg/kg/injection, vehicle: distilled water + alcohol", "value": "7 % of control"},
      {"measurement": "T/C", "setting": "dose: 0.5 mg/kg/injection, vehicle: other", "value": "8 % of control"},
      {"measurement": "T/C", "setting": "dose: 0.5 mg/kg/injection, vehicle: saline", "value": "8 % of control"},
      {"measurement": "T/C", "setting": "dose: 0.7 mg/kg/injection, vehicle: carboxymethylcellulose (CMC)", "value": "7 % of control"},
      {"measurement": "T/C", "setting": "dose: 0.94 mg/kg/injection, vehicle: carboxymethylcellulose (CMC)", "value": "30 % of control"},
      {"measurement": "T/C", "setting": "dose: 1.0 mg/kg/injection, vehicle: alkali diluted with saline", "value": "1 % of control"},
      {"measurement": "T/C", "setting": "dose: 1.0 mg/kg/injection, vehicle: carboxymethylcellulose (CMC)", "value": "1 % of control and 2 % of control"},
      {"measurement": "T/C", "setting": "dose: 1.0 mg/kg/injection, vehicle: distilled water + alcohol", "value": "2 % of control"},
      {"measurement": "T/C", "setting": "dose: 1.0 mg/kg/injection, vehicle: other", "value": "3 % of control"},
      {"measurement": "T/C", "setting": "dose: 1.0 mg/kg/injection, vehicle: saline", "value": "2 % of control and 8 % of control"},
      {"measurement": "T/C", "setting": "dose: 1.4 mg/kg/injection, vehicle: carboxymethylcellulose (CMC)", "value": "5 % of control"},
      {"measurement": "T/C", "setting": "dose: 1.5 mg/kg/injection, vehicle: methylcellulose (MC)", "value": "4 % of control"},
      {"measurement": "T/C", "setting": "dose: 2.0 mg/kg/injection, vehicle: alkali diluted with saline", "value": "1 % of control"},
      {"measurement": "T/C", "setting": "dose: 2.0 mg/kg/injection, vehicle: carboxymethylcellulose (CMC)", "value": "1 % of control"},
      {"measurement": "T/C", "setting": "dose: 2.0 mg/kg/injection, vehicle: other", "value": "2 % of control"},
      {"measurement": "T/C", "setting": "dose: 2.0 mg/kg/injection, vehicle: saline", "value": "3 % of control and 7 % of control"},
      {"measurement": "T/C", "setting": "dose: 3.0 mg/kg/injection, vehicle: methylcellulose (MC)", "value": "3 % of control"},
      {"measurement": "T/C", "setting": "dose: 4.0 mg/kg/injection, vehicle: carboxymethylcellulose (CMC)", "value": "1 % of control"},
      {"measurement": "T/C", "setting": "dose: 4.0 mg/kg/injection, vehicle: methylcellulose (MC)", "value": "3 % of control"},
      {"measurement": "T/C", "setting": "dose: 4.0 mg/kg/injection, vehicle: other", "value": "1 % of control"},
      {"measurement": "T/C", "setting": "dose: 46.0 micrograms/kg/injection, vehicle: carboxymethylcellulose (CMC)", "value": "72 % of control"},
      {"measurement": "T/C", "setting": "dose: 49.0 micrograms/kg/injection, vehicle: carboxymethylcellulose (CMC)", "value": "118 % of control"},
      {"measurement": "T/C", "setting": "dose: 58.0 micrograms/kg/injection, vehicle: carboxymethylcellulose (CMC)", "value": "91 % of control"},
      {"measurement": "T/C", "setting": "dose: 62.0 micrograms/kg/injection, vehicle: carboxymethylcellulose (CMC)", "value": "77 % of control"},
      {"measurement": "T/C", "setting": "dose: 77.0 micrograms/kg/injection, vehicle: carboxymethylcellulose (CMC)", "value": "54 % of control"},
      {"measurement": "T/C", "setting": "dose: 82.0 micrograms/kg/injection, vehicle: carboxymethylcellulose (CMC)", "value": "69 % of control"},
      {"measurement": "T/C", "setting": "dose: 90.0 micrograms/kg/injection, vehicle: methylcellulose (MC)", "value": "32 % of control"},
      {"measurement": "T/C", "setting": "dose: 93.0 micrograms/kg/injection, vehicle: carboxymethylcellulose (CMC)", "value": "28 % of control"},
      {"measurement": "T/C", "setting": "dose: 116.0 micrograms/kg/injection, vehicle: carboxymethylcellulose (CMC)", "value": "12 % of control and 36 % of control"},
      {"measurement": "T/C", "setting": "dose: 140.0 micrograms/kg/injection, vehicle: carboxymethylcellulose (CMC)", "value": "11 % of control"},
      {"measurement": "T/C", "setting": "dose: 155.0 micrograms/kg/injection, vehicle: carboxymethylcellulose (CMC)", "value": "6 % of control"},
      {"measurement": "T/C", "setting": "dose: 175.0 micrograms/kg/injection, vehicle: carboxymethylcellulose (CMC)", "value": "4 % of control"},
      {"measurement": "T/C", "setting": "dose: 187.0 micrograms/kg/injection, vehicle: methylcellulose (MC)", "value": "11 % of control"},
      {"measurement": "T/C", "setting": "dose: 232.0 micrograms/kg/injection, vehicle: carboxymethylcellulose (CMC)", "value": "13 % of control"},
      {"measurement": "T/C", "setting": "dose: 233.0 micrograms/kg/injection, vehicle: carboxymethylcellulose (CMC)", "value": "2 % of control and 5 % of control"},
      {"measurement": "T/C", "setting": "dose: 350.0 micrograms/kg/injection, vehicle: carboxymethylcellulose (CMC)", "value": "3 % of control and 4 % of control"},
      {"measurement": "T/C", "setting": "dose: 375.0 micrograms/kg/injection, vehicle: methylcellulose (MC)", "value": "9 % of control"},
      {"measurement": "T/C", "setting": "dose: 490.0 micrograms/kg/injection, vehicle: carboxymethylcellulose (CMC)", "value": "5 % of control"},
      {"measurement": "T/C", "setting": "dose: 750.0 micrograms/kg/injection, vehicle: methylcellulose (MC)", "value": "4 % of control"},
      {"measurement": "T/C", "setting": "dose: 980.0 micrograms/kg/injection, vehicle: carboxymethylcellulose (CMC)", "value": "4 % of control"},
      {"measurement": "T/C", "setting": "dose: 1500.0 micrograms/kg/injection, vehicle: methylcellulose (MC)", "value": "3 % of control"},
      {"measurement": "T/C", "setting": "dose: 3000.0 micrograms/kg/injection, vehicle: methylcellulose (MC)", "value": "4 % of control"}
    ]},
    {"smiles": "CC(CNC(=O)CCBr)CNC(=O)CCBr", "values": [
      {"measurement": "T/C", "setting": "dose: 113.0 mg/kg/injection, vehicle: carboxymethylcellulose (CMC)", "value": "51 % of control"}
    ]},
    {"smiles": "CCN(CC)c1ccc(/C=C/c2ccnc3ccccc23)cc1", "values": [
      {"measurement": "T/C", "setting": "dose: 2.5 mg/kg/injection, vehicle: other", "value": "86 % of control"},
      {"measurement": "T/C", "setting": "dose: 3.03 mg/kg/injection, vehicle: carboxymethylcellulose (CMC)", "value": "77 % of control"},
      {"measurement": "T/C", "setting": "dose: 3.23 mg/kg/injection, vehicle: other", "value": "84 % of control"},
      {"measurement": "T/C", "setting": "dose: 4.8 mg/kg/injection, vehicle: carboxymethylcellulose (CMC)", "value": "74 % of control"},
      {"measurement": "T/C", "setting": "dose: 5.0 mg/kg/injection, vehicle: other", "value": "91 % of control"},
      {"measurement": "T/C", "setting": "dose: 6.0 mg/kg/injection, vehicle: carboxymethylcellulose (CMC)", "value": "69 % of control"},
      {"measurement": "T/C", "setting": "dose: 6.05 mg/kg/injection, vehicle: carboxymethylcellulose (CMC)", "value": "119 % of control"},
      {"measurement": "T/C", "setting": "dose: 6.45 mg/kg/injection, vehicle: other", "value": "115 % of control"},
      {"measurement": "T/C", "setting": "dose: 8.0 mg/kg/injection, vehicle: carboxymethylcellulose (CMC)", "value": "55 % of control"},
      {"measurement": "T/C", "setting": "dose: 9.68 mg/kg/injection, vehicle: carboxymethylcellulose (CMC)", "value": "64 % of control"},
      {"measurement": "T/C", "setting": "dose: 12.0 mg/kg/injection, vehicle: carboxymethylcellulose (CMC)", "value": "46 % of control"},
      {"measurement": "T/C", "setting": "dose: 12.1 mg/kg/injection, vehicle: carboxymethylcellulose (CMC)", "value": "31 % of control"},
      {"measurement": "T/C", "setting": "dose: 12.9 mg/kg/injection, vehicle: other", "value": "55 % of control"},
      {"measurement": "T/C", "setting": "dose: 14.0 mg/kg/injection, vehicle: carboxymethylcellulose (CMC)", "value": "70 % of control"},
      {"measurement": "T/C", "setting": "dose: 15.0 mg/kg/injection, vehicle: other", "value": "25 % of control"},
      {"measurement": "T/C", "setting": "dose: 16.13 mg/kg/injection, vehicle: carboxymethylcellulose (CMC)", "value": "52 % of control"}
    ]}
  ]
}
